# What was measured:
# Assay in all cases: Weeding effect in post-emergence stage
# Assay type in all cases: in vivo
# Echinochloa crusgalli = conditions: for Weeding effect in post-emergence stage, Echinochloa crusgalli: level of fresh weight growth control rate; for Weeding effect in post-emergence stage, Echinochloa crusgalli (level): fresh weight control rate level
# Outline: (§1)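 Weeds were treated post-emergence at 2-3 leaves with compound doses from 7.5 up to 500 g/ha, formulated in acetone–Tween 80 with methyl oleate synergist. Efficacy was assessed as growth control after 3 weeks.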
# Alopecurus japonicus = conditions: for Weeding effect in post-emergence stage, Alopecurus japonicus: level of fresh weight growth control rate; for Weeding effect in post-emergence stage, Alopecurus japonicus (level): fresh weight control rate level
# Outline: as §1
# Digitaria sanguinalis = conditions: for Weeding effect in post-emergence stage, Digitaria sanguinalis: level of fresh weight growth control rate; for Weeding effect in post-emergence stage, Digitaria sanguinalis (level): fresh weight control rate level
# Outline: as §1
# Abutilon theophrasti = conditions: for Weeding effect in post-emergence stage, Abutilon theophrasti: level of fresh weight growth control rate; for Weeding effect in post-emergence stage, Abutilon theophrasti (level): fresh weight control rate level
# Outline: as §1
# Eleusine indica = conditions: for Weeding effect in post-emergence stage, Eleusine indica: level of fresh weight growth control rate; for Weeding effect in post-emergence stage, Eleusine indica (level): fresh weight control rate level
# Outline: as §1
# Setaria viridis = conditions: for Weeding effect in post-emergence stage, Setaria viridis: level of fresh weight growth control rate; for Weeding effect in post-emergence stage, Setaria viridis (level): fresh weight control rate level
# Outline: as §1
compound,measurement,setting,value
C[C@@H](O/N=C/c1cc(-n2c(=O)cc(C(F)(F)F)n(C)c2=O)c(F)cc1Cl)C(=O)OCCC(F)(F)F [221(R)],"Weeding effect in post-emergence stage, Echinochloa crusgalli",Echinochloa crusgalli; Dose 15 g/ha,5 (Level 5: growth control rate is above 85%)
same,"Weeding effect in post-emergence stage, Alopecurus japonicus",Alopecurus japonicus; Dose 15 g/ha,5 (Level 5: growth control rate is above 85%)
same,"Weeding effect in post-emergence stage, Digitaria sanguinalis",Digitaria sanguinalis; Dose 15 g/ha,5 (Level 5: growth control rate is above 85%)
same,"Weeding effect in post-emergence stage, Abutilon theophrasti",Abutilon theophrasti; Dose 15 g/ha,5 (Level 5: growth control rate is above 85%)
same,"Weeding effect in post-emergence stage, Eleusine indica",Eleusine indica; Dose 15 g/ha,5 (Level 5: growth control rate is above 85%)
same,"Weeding effect in post-emergence stage, Setaria viridis",Setaria viridis; Dose 15 g/ha,5 (Level 5: growth control rate is above 85%)
COC(=O)C(C)O/N=C/c1cc(-n2c(=S)cc(C(F)(F)F)n(C)c2=S)c(F)cc1C(F)(F)F (racemic) [Compound 392],"Weeding effect in post-emergence stage, Echinochloa crusgalli (level)",Echinochloa crusgalli; Dose 60 g/ha,5 (Level 5: growth control rate is above 85%)
same,"Weeding effect in post-emergence stage, Alopecurus japonicus (level)",Alopecurus japonicus; Dose 60 g/ha,5 (Level 5: growth control rate is above 85%)
same,"Weeding effect in post-emergence stage, Digitaria sanguinalis (level)",Digitaria sanguinalis; Dose 60 g/ha,5 (Level 5: growth control rate is above 85%)
same,"Weeding effect in post-emergence stage, Abutilon theophrasti (level)",Abutilon theophrasti; Dose 60 g/ha,5 (Level 5: growth control rate is above 85%)
same,"Weeding effect in post-emergence stage, Eleusine indica (level)",Eleusine indica; Dose 60 g/ha,5 (Level 5: growth control rate is above 85%)
same,"Weeding effect in post-emergence stage, Setaria viridis (level)",Setaria viridis; Dose 60 g/ha,5 (Level 5: growth control rate is above 85%)
COC(=O)C(C)OC(=O)C(C)O/N=C/c1cc(-n2c(=O)cc(C(F)(F)F)n(C)c2=O)c(F)cc1Cl (stereo not drawn) [Compound 241],"Weeding effect in post-emergence stage, Echinochloa crusgalli",Echinochloa crusgalli; Dose 30 g/ha,5 (Level 5: growth control rate is above 85%)
same,"Weeding effect in post-emergence stage, Alopecurus japonicus",Alopecurus japonicus; Dose 30 g/ha,5 (Level 5: growth control rate is above 85%)
same,"Weeding effect in post-emergence stage, Digitaria sanguinalis",Digitaria sanguinalis; Dose 30 g/ha,5 (Level 5: growth control rate is above 85%)
same,"Weeding effect in post-emergence stage, Abutilon theophrasti",Abutilon theophrasti; Dose 30 g/ha,5 (Level 5: growth control rate is above 85%)
same,"Weeding effect in post-emergence stage, Eleusine indica",Eleusine indica; Dose 30 g/ha,5 (Level 5: growth control rate is above 85%)
same,"Weeding effect in post-emergence stage, Setaria viridis",Setaria viridis; Dose 30 g/ha,5 (Level 5: growth control rate is above 85%)
CCn1c(C(F)(F)F)cc(=O)n(-c2cc(/C=N/OC(C)C(=O)OC)c(Cl)cc2F)c1=O (stereo not drawn) [Compound 426],"Weeding effect in post-emergence stage, Echinochloa crusgalli (level)",Echinochloa crusgalli; Dose 250 g/ha,5 (Level 5: growth control rate is above 85%)
same,"Weeding effect in post-emergence stage, Alopecurus japonicus (level)",Alopecurus japonicus; Dose 250 g/ha,5 (Level 5: growth control rate is above 85%)
same,"Weeding effect in post-emergence stage, Digitaria sanguinalis (level)",Digitaria sanguinalis; Dose 250 g/ha,5 (Level 5: growth control rate is above 85%)
same,"Weeding effect in post-emergence stage, Abutilon theophrasti (level)",Abutilon theophrasti; Dose 250 g/ha,5 (Level 5: growth control rate is above 85%)
same,"Weeding effect in post-emergence stage, Eleusine indica (level)",Eleusine indica; Dose 250 g/ha,5 (Level 5: growth control rate is above 85%)
same,"Weeding effect in post-emergence stage, Setaria viridis (level)",Setaria viridis; Dose 250 g/ha,5 (Level 5: growth control rate is above 85%)
COC(=O)[C@H](OC)O/N=C/c1cc(-n2c(=O)cc(C(F)(F)F)n(C)c2=O)c(F)cc1Cl [321(R)],"Weeding effect in post-emergence stage, Echinochloa crusgalli",Echinochloa crusgalli; Dose 120 g/ha,5 (Level 5: growth control rate is above 85%)
same,"Weeding effect in post-emergence stage, Alopecurus japonicus",Alopecurus japonicus; Dose 120 g/ha,5 (Level 5: growth control rate is above 85%)
same,"Weeding effect in post-emergence stage, Digitaria sanguinalis",Digitaria sanguinalis; Dose 120 g/ha,5 (Level 5: growth control rate is above 85%)
same,"Weeding effect in post-emergence stage, Abutilon theophrasti",Abutilon theophrasti; Dose 120 g/ha,5 (Level 5: growth control rate is above 85%)
same,"Weeding effect in post-emergence stage, Eleusine indica",Eleusine indica; Dose 120 g/ha,5 (Level 5: growth control rate is above 85%)
same,"Weeding effect in post-emergence stage, Setaria viridis",Setaria viridis; Dose 120 g/ha,5 (Level 5: growth control rate is above 85%)
COC(=O)C(C)O/N=C/c1nc(-n2c(=O)cc(C(F)(F)F)n(C)c2=O)c(F)cc1Cl (stereo not drawn) [Compound 504],"Weeding effect in post-emergence stage, Echinochloa crusgalli (level)",Echinochloa crusgalli; Dose 15 g/ha,5 (Level 5: growth control rate is above 85%)
same,"Weeding effect in post-emergence stage, Alopecurus japonicus (level)",Alopecurus japonicus; Dose 15 g/ha,5 (Level 5: growth control rate is above 85%)
same,"Weeding effect in post-emergence stage, Digitaria sanguinalis (level)",Digitaria sanguinalis; Dose 15 g/ha,5 (Level 5: growth control rate is above 85%)
same,"Weeding effect in post-emergence stage, Abutilon theophrasti (level)",Abutilon theophrasti; Dose 15 g/ha,5 (Level 5: growth control rate is above 85%)
same,"Weeding effect in post-emergence stage, Eleusine indica (level)",Eleusine indica; Dose 15 g/ha,5 (Level 5: growth control rate is above 85%)
same,"Weeding effect in post-emergence stage, Setaria viridis (level)",Setaria viridis; Dose 15 g/ha,5 (Level 5: growth control rate is above 85%)
C[C@@H](O/N=C/c1cc(-n2c(=O)n(C)c(=S)n(C)c2=O)c(F)cc1Cl)C(=O)OCC(F)(F)F [439(R)],"Weeding effect in post-emergence stage, Echinochloa crusgalli (level)",Echinochloa crusgalli; Dose 30 g/ha,5 (Level 5: growth control rate is above 85%)
same,"Weeding effect in post-emergence stage, Alopecurus japonicus (level)",Alopecurus japonicus; Dose 30 g/ha,5 (Level 5: growth control rate is above 85%)
same,"Weeding effect in post-emergence stage, Digitaria sanguinalis (level)",Digitaria sanguinalis; Dose 30 g/ha,5 (Level 5: growth control rate is above 85%)
same,"Weeding effect in post-emergence stage, Abutilon theophrasti (level)",Abutilon theophrasti; Dose 30 g/ha,5 (Level 5: growth control rate is above 85%)
same,"Weeding effect in post-emergence stage, Eleusine indica (level)",Eleusine indica; Dose 30 g/ha,5 (Level 5: growth control rate is above 85%)
same,"Weeding effect in post-emergence stage, Setaria viridis (level)",Setaria viridis; Dose 30 g/ha,5 (Level 5: growth control rate is above 85%)
COC(=O)[C@H](O/N=C/c1cc(-n2c(=O)cc(C(F)(F)F)n(C)c2=O)c(F)cc1Cl)C1CC1 [456(R)],"Weeding effect in post-emergence stage, Echinochloa crusgalli (level)",Echinochloa crusgalli; Dose 30 g/ha,5 (Level 5: growth control rate is above 85%)
same,"Weeding effect in post-emergence stage, Alopecurus japonicus (level)",Alopecurus japonicus; Dose 30 g/ha,5 (Level 5: growth control rate is above 85%)
same,"Weeding effect in post-emergence stage, Digitaria sanguinalis (level)",Digitaria sanguinalis; Dose 30 g/ha,5 (Level 5: growth control rate is above 85%)
same,"Weeding effect in post-emergence stage, Abutilon theophrasti (level)",Abutilon theophrasti; Dose 30 g/ha,5 (Level 5: growth control rate is above 85%)
same,"Weeding effect in post-emergence stage, Eleusine indica (level)",Eleusine indica; Dose 30 g/ha,5 (Level 5: growth control rate is above 85%)
same,"Weeding effect in post-emergence stage, Setaria viridis (level)",Setaria viridis; Dose 30 g/ha,5 (Level 5: growth control rate is above 85%)
COC(=O)C(O/N=C/c1cc(-n2c(=O)cc(C(F)(F)F)n(C)c2=O)c(F)cc1Cl)C1CCC1 (stereo not drawn) [Compound 488],"Weeding effect in post-emergence stage, Echinochloa crusgalli (level)",Echinochloa crusgalli; Dose 15 g/ha,5 (Level 5: growth control rate is above 85%)
same,"Weeding effect in post-emergence stage, Alopecurus japonicus (level)",Alopecurus japonicus; Dose 15 g/ha,5 (Level 5: growth control rate is above 85%)
same,"Weeding effect in post-emergence stage, Digitaria sanguinalis (level)",Digitaria sanguinalis; Dose 15 g/ha,5 (Level 5: growth control rate is above 85%)
same,"Weeding effect in post-emergence stage, Abutilon theophrasti (level)",Abutilon theophrasti; Dose 15 g/ha,5 (Level 5: growth control rate is above 85%)
same,"Weeding effect in post-emergence stage, Eleusine indica (level)",Eleusine indica; Dose 15 g/ha,5 (Level 5: growth control rate is above 85%)
same,"Weeding effect in post-emergence stage, Setaria viridis (level)",Setaria viridis; Dose 15 g/ha,5 (Level 5: growth control rate is above 85%)
CCOC(=O)OC(C)OC(=O)C(C)O/N=C/c1cc(-n2c(=O)cc(C(F)(F)F)n(C)c2=O)c(F)cc1Cl (stereo not drawn) [Compound 246],"Weeding effect in post-emergence stage, Echinochloa crusgalli",Echinochloa crusgalli; Dose 15 g/ha,5 (Level 5: growth control rate is above 85%)
same,"Weeding effect in post-emergence stage, Alopecurus japonicus",Alopecurus japonicus; Dose 15 g/ha,5 (Level 5: growth control rate is above 85%)
same,"Weeding effect in post-emergence stage, Digitaria sanguinalis",Digitaria sanguinalis; Dose 15 g/ha,5 (Level 5: growth control rate is above 85%)
same,"Weeding effect in post-emergence stage, Abutilon theophrasti",Abutilon theophrasti; Dose 15 g/ha,5 (Level 5: growth control rate is above 85%)
same,"Weeding effect in post-emergence stage, Eleusine indica",Eleusine indica; Dose 15 g/ha,5 (Level 5: growth control rate is above 85%)
same,"Weeding effect in post-emergence stage, Setaria viridis",Setaria viridis; Dose 15 g/ha,5 (Level 5: growth control rate is above 85%)
CC(C)=NOCCOC(=O)[C@@H](C)O/N=C/c1cc(-n2c(=O)cc(C(F)(F)F)n(C)c2=O)c(F)cc1Cl [259(R)],"Weeding effect in post-emergence stage, Echinochloa crusgalli",Echinochloa crusgalli; Dose 30 g/ha,5 (Level 5: growth control rate is above 85%)
same,"Weeding effect in post-emergence stage, Alopecurus japonicus",Alopecurus japonicus; Dose 30 g/ha,5 (Level 5: growth control rate is above 85%)
same,"Weeding effect in post-emergence stage, Digitaria sanguinalis",Digitaria sanguinalis; Dose 30 g/ha,5 (Level 5: growth control rate is above 85%)
same,"Weeding effect in post-emergence stage, Abutilon theophrasti",Abutilon theophrasti; Dose 30 g/ha,5 (Level 5: growth control rate is above 85%)
same,"Weeding effect in post-emergence stage, Eleusine indica",Eleusine indica; Dose 30 g/ha,5 (Level 5: growth control rate is above 85%)
same,"Weeding effect in post-emergence stage, Setaria viridis",Setaria viridis; Dose 30 g/ha,5 (Level 5: growth control rate is above 85%)
C[C@@H](O/N=C/c1cc(-n2c(=O)cc(C(F)(F)F)n(C)c2=O)c(F)cc1Cl)C(=O)OCc1cccs1 [268(R)],"Weeding effect in post-emergence stage, Echinochloa crusgalli",Echinochloa crusgalli; Dose 30 g/ha,5 (Level 5: growth control rate is above 85%)
same,"Weeding effect in post-emergence stage, Alopecurus japonicus",Alopecurus japonicus; Dose 30 g/ha,5 (Level 5: growth control rate is above 85%)
same,"Weeding effect in post-emergence stage, Digitaria sanguinalis",Digitaria sanguinalis; Dose 30 g/ha,5 (Level 5: growth control rate is above 85%)
same,"Weeding effect in post-emergence stage, Abutilon theophrasti",Abutilon theophrasti; Dose 30 g/ha,5 (Level 5: growth control rate is above 85%)
same,"Weeding effect in post-emergence stage, Eleusine indica",Eleusine indica; Dose 30 g/ha,5 (Level 5: growth control rate is above 85%)
same,"Weeding effect in post-emergence stage, Setaria viridis",Setaria viridis; Dose 30 g/ha,5 (Level 5: growth control rate is above 85%)
C[C@@H](O/N=C/c1cc(-n2c(=O)cc(C(F)(F)F)n(C)c2=O)c(F)cc1Cl)C(=O)OCc1ccc(Cl)nc1 [495(R)],"Weeding effect in post-emergence stage, Echinochloa crusgalli (level)",Echinochloa crusgalli; Dose 15 g/ha,5 (Level 5: growth control rate is above 85%)
same,"Weeding effect in post-emergence stage, Alopecurus japonicus (level)",Alopecurus japonicus; Dose 15 g/ha,5 (Level 5: growth control rate is above 85%)
same,"Weeding effect in post-emergence stage, Digitaria sanguinalis (level)",Digitaria sanguinalis; Dose 15 g/ha,5 (Level 5: growth control rate is above 85%)
same,"Weeding effect in post-emergence stage, Abutilon theophrasti (level)",Abutilon theophrasti; Dose 15 g/ha,5 (Level 5: growth control rate is above 85%)
same,"Weeding effect in post-emergence stage, Eleusine indica (level)",Eleusine indica; Dose 15 g/ha,5 (Level 5: growth control rate is above 85%)
same,"Weeding effect in post-emergence stage, Setaria viridis (level)",Setaria viridis; Dose 15 g/ha,5 (Level 5: growth control rate is above 85%)
